Key:
[1] = DRUGMATRIX: Sodium/nucleoside co-transporter radioligand binding (ligand: nitrobenzylthioinosine); assay type: cell membranes, Cavia porcellus, Dunkin-Hartley, Cerebral cortex, Membrane; conditions: Not Active = under 50% inhibition at 10 µM
[2] = target: T1, Alpha-1B adrenergic receptor (Rattus norvegicus, UniProt P15823); test: DRUGMATRIX: Alpha-1B adrenergic receptor radioligand binding (ligand: prazosin); assay type: cell membranes, Wistar, Liver, Membrane; conditions: Not Active = under 50% inhibition at 10 µM
T1 sequence (P15823 whole entry): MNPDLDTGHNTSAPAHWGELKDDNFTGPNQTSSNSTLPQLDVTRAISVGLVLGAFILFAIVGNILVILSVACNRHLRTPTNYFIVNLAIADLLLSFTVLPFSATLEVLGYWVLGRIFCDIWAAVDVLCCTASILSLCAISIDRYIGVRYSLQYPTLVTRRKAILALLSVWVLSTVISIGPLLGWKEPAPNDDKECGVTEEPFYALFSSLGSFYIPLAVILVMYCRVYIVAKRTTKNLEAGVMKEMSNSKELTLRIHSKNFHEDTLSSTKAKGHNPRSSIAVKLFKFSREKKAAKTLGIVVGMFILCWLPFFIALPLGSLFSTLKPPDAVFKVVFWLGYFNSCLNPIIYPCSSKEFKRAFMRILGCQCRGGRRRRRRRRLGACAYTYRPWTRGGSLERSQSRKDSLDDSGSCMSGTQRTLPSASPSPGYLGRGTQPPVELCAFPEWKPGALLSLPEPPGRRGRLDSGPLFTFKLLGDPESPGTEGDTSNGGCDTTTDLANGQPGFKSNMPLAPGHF

[3] = target: T2, Alpha-2C adrenergic receptor (Homo sapiens, UniProt P18825); test: DRUGMATRIX: Adrenergic Alpha-2C radioligand binding (ligand: [3H] MK-912); assay type: cell membranes, Sf9, Membrane; conditions: sf9
T2 sequence (P18825 whole entry): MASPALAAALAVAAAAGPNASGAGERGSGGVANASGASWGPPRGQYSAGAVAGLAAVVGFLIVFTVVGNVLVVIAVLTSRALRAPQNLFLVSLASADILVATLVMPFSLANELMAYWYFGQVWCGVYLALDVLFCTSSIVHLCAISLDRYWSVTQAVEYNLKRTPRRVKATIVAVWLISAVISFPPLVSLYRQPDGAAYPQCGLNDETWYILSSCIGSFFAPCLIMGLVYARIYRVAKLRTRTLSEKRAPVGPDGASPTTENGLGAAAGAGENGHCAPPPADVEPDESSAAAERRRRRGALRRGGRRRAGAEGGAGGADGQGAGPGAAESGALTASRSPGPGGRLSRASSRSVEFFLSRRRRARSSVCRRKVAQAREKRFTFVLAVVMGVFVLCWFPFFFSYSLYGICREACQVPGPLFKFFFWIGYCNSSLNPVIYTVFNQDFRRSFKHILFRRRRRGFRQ

[4] = target: Beta-2 adrenergic receptor (Homo sapiens, UniProt P07550); test: DRUGMATRIX: Adrenergic beta2 radioligand binding (ligand: [3H] CGP-12177); assay type: cell membranes, Membrane; conditions: cho; Not Active = under 50% inhibition at 10 µM
Chain of Beta-2 adrenergic receptor (P07550 whole entry): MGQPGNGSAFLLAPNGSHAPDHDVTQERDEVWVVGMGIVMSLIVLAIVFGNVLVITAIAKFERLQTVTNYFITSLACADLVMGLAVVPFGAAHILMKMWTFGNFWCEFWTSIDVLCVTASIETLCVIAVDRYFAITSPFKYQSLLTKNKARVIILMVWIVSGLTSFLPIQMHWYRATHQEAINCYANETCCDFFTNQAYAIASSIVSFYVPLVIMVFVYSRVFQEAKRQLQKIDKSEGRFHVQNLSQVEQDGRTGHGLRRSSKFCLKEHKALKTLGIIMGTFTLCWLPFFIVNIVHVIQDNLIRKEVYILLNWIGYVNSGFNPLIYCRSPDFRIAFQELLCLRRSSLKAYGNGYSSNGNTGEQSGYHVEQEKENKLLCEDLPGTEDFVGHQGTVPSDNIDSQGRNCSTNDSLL

[5] = target: T3, Type-2 angiotensin II receptor (Homo sapiens, UniProt P50052); assay type: cell-based; conditions: cho-k1; further: in other assays of this panel Not Active means under 50% inhibition at 10 µM
T3 sequence (P50052 whole entry): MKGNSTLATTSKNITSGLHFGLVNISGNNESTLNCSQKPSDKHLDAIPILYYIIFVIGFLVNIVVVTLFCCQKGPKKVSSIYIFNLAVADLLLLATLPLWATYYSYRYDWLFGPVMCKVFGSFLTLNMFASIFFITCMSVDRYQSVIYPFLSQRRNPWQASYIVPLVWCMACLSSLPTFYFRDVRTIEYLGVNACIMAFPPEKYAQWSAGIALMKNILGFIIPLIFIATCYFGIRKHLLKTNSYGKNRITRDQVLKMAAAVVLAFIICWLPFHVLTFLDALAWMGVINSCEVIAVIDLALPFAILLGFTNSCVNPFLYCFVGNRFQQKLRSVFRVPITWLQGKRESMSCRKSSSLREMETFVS

[6] = DRUGMATRIX: beta-Lactamase enzyme inhibition (substrate: Nitrocefin); design: species or system Bacillus cereus; conditions: Not Active = under 50% inhibition at 10 µM
Cannabinoid receptor 1 = Cannabinoid receptor 1 (Homo sapiens, UniProt P21554); assay type: cell membranes, Membrane; conditions: chem-1; further: in other assays of this panel Not Active means under 50% inhibition at 10 µM
Chain of Cannabinoid receptor 1 (P21554 whole entry): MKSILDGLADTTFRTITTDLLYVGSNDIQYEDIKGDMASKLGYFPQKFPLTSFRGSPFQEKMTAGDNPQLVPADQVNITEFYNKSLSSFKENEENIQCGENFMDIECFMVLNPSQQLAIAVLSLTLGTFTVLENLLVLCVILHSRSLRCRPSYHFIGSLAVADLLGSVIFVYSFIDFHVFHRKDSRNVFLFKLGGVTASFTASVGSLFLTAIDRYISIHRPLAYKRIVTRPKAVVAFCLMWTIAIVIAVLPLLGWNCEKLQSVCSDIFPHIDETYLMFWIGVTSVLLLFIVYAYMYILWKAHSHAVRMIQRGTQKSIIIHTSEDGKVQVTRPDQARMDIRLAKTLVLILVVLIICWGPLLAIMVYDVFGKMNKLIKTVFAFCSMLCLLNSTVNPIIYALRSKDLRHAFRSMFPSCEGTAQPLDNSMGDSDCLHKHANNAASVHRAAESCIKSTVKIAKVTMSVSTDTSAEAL

[7] = target: T4, C-C chemokine receptor type 4 (Homo sapiens, UniProt P51679); assay type: cell membranes, Membrane; conditions: chem-1; further: in other assays of this panel Not Active means under 50% inhibition at 10 µM
T4 sequence (P51679 whole entry): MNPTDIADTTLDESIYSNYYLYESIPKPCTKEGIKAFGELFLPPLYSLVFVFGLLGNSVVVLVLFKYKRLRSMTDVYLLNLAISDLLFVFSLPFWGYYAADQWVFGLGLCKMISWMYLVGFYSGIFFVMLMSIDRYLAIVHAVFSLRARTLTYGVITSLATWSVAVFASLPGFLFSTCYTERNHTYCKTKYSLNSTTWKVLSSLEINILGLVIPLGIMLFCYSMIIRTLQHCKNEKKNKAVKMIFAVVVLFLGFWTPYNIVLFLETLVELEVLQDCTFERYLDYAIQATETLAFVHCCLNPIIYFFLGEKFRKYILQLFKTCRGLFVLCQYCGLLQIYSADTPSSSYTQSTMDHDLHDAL

[8] = DRUGMATRIX: Platelet-Derived Growth Factor (PDGF) radioligand binding (ligand: [125I] PDGF); assay type: cell-based; conditions: nih3t3; Not Active = under 50% inhibition at 10 µM
[9] = target: Mitogen-activated protein kinase 3 (Homo sapiens, UniProt P27361); test: DRUGMATRIX: Protein Serine/Threonine Kinase, ERK1 enzyme inhibition (substrate: Myelin Basic Protein); design: species or system Escherichia coli; conditions: Not Active = under 50% inhibition at 10 µM
Chain of Mitogen-activated protein kinase 3 (P27361 whole entry): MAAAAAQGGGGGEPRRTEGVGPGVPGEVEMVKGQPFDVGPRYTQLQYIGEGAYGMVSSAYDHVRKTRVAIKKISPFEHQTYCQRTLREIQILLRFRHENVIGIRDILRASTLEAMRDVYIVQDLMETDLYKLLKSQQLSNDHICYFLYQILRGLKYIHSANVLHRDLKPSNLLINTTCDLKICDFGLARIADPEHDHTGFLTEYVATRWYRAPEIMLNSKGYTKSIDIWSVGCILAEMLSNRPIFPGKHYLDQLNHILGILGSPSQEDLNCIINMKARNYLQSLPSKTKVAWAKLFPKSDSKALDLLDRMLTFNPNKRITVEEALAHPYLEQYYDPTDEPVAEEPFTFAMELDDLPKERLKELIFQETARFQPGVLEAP

Cytochrome P450 2A6 = target: T5, Cytochrome P450 2A6 (Homo sapiens, UniProt P11509); conditions: bti-tn-5b1-4; further: in other assays of this panel Not Active means under 50% inhibition at 10 µM
T5 sequence (P11509 whole entry): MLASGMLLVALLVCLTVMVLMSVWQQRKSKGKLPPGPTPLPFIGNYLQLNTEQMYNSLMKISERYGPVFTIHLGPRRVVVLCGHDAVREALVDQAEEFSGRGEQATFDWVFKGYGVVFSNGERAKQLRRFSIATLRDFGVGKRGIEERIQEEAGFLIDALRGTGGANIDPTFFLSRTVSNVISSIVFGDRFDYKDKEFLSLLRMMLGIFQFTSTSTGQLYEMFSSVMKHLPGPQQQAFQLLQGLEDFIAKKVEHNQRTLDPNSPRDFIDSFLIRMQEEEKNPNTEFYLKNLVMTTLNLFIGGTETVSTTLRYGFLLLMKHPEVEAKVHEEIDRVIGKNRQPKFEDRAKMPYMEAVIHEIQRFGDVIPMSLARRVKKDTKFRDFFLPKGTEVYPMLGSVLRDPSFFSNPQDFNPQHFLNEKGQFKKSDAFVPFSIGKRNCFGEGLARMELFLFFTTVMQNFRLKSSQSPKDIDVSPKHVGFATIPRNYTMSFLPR

Cytochrome P450 2E1 = Cytochrome P450 2E1 (Homo sapiens, UniProt P05181); conditions: bti-tn-5b1-4; further: in other assays of this panel Not Active means under 50% inhibition at 10 µM
Chain of Cytochrome P450 2E1 (P05181 whole entry): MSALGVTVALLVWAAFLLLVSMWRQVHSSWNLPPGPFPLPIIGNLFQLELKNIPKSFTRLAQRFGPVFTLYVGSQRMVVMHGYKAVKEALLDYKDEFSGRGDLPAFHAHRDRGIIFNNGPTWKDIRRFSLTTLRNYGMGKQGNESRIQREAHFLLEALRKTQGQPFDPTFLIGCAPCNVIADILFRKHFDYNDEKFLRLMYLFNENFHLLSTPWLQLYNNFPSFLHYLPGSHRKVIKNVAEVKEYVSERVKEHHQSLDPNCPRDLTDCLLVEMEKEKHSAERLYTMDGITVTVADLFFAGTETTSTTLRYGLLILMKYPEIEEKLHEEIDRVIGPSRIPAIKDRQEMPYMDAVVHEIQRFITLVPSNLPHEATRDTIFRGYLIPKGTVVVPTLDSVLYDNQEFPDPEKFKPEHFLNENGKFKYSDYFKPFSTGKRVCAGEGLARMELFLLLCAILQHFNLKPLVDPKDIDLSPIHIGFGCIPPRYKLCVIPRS

NCCCC[C@H](N[C@@H](CCc1ccccc1)C(=O)O)C(=O)N1CCC[C@H]1C(=O)O [LISINOPRIL ANHYDROUS]
Not Active: IC50 [1] | Ki [1] | IC50 [2] | IC50 [3] | IC50 [4] | IC50 [5] | IC50 [6] | Ki [6] | IC50 (Cannabinoid receptor 1) | IC50 [7] | IC50 [8] | Ki [8] | IC50 [9] | IC50 (Cytochrome P450 2A6) | Ki (Cytochrome P450 2A6) | IC50 (Cytochrome P450 2E1) | Ki (Cytochrome P450 2E1)

CC(=O)S[C@@H]1CC2=CC(=O)CC[C@]2(C)[C@H]2CC[C@@]3(C)[C@@H](CC[C@@]34CCC(=O)O4)[C@H]12 [SPIRONOLACTONE]
Not Active: IC50 [1] | Ki [1] | IC50 [2] | IC50 [3] | IC50 [4] | IC50 [5] | IC50 [6] | Ki [6] | IC50 (Cannabinoid receptor 1) | IC50 [7] | IC50 [8] | Ki [8] | IC50 [9] | IC50 (Cytochrome P450 2A6) | Ki (Cytochrome P450 2A6) | IC50 (Cytochrome P450 2E1) | Ki (Cytochrome P450 2E1)

CO[C@@H]1[C@@H](O[C@@H]2O[C@H](C)[C@@H](O[C@H]3C[C@@](C)(O)[C@@H](OC(=O)CC(C)C)[C@H](C)O3)[C@H](N(C)C)[C@H]2O)[C@@H](CC=O)C[C@@H](C)[C@@H](O)/C=C/C=C/C[C@@H](C)OC(=O)C[C@H]1O [KITASAMYCIN]
Not Active: IC50 [1] | Ki [1] | IC50 [2] | IC50 [3] | IC50 [4] | IC50 [5] | IC50 [6] | Ki [6] | IC50 (Cannabinoid receptor 1) | IC50 [7] | IC50 [8] | Ki [8] | IC50 [9] | IC50 (Cytochrome P450 2A6) | Ki (Cytochrome P450 2A6) | IC50 (Cytochrome P450 2E1) | Ki (Cytochrome P450 2E1)

Clc1ccc(C(c2ccccc2Cl)C(Cl)Cl)cc1 (stereo unspecified) [MITOTANE]
Not Active: IC50 [1] | Ki [1] | IC50 [2] | IC50 [3] | IC50 [4] | IC50 [5] | IC50 [6] | Ki [6] | IC50 (Cannabinoid receptor 1) | IC50 [7] | IC50 [8] | Ki [8] | IC50 [9] | IC50 (Cytochrome P450 2A6) | Ki (Cytochrome P450 2A6) | IC50 (Cytochrome P450 2E1) | Ki (Cytochrome P450 2E1)

C=CC[C@@H]1/C=C(\C)C[C@H](C)C[C@H](OC)[C@H]2O[C@@](O)(C(=O)C(=O)N3CCCC[C@H]3C(=O)O[C@H](/C(C)=C/[C@@H]3CC[C@@H](O)[C@H](OC)C3)[C@H](C)[C@@H](O)CC1=O)[C@H](C)C[C@@H]2OC [TACROLIMUS ANHYDROUS]
Not Active: IC50 [1] | Ki [1] | IC50 [2] | IC50 [3] | IC50 [4] | IC50 [5] | IC50 [6] | Ki [6] | IC50 (Cannabinoid receptor 1) | IC50 [7] | IC50 [8] | Ki [8] | IC50 [9] | IC50 (Cytochrome P450 2A6) | Ki (Cytochrome P450 2A6) | IC50 (Cytochrome P450 2E1) | Ki (Cytochrome P450 2E1)

COc1ccc(C(CN(C)C)C2(O)CCCCC2)cc1 (stereo unspecified) [VENLAFAXINE]
Not Active: IC50 [1] | Ki [1] | IC50 [2] | IC50 [3] | IC50 [4] | IC50 [5] | IC50 [6] | Ki [6] | IC50 (Cannabinoid receptor 1) | IC50 [7] | IC50 [8] | Ki [8] | IC50 [9] | IC50 (Cytochrome P450 2A6) | Ki (Cytochrome P450 2A6) | IC50 (Cytochrome P450 2E1) | Ki (Cytochrome P450 2E1)

Cc1cc(NS(=O)(=O)c2ccc(N)cc2)no1 [SULFAMETHOXAZOLE]
Not Active: IC50 [1] | Ki [1] | IC50 [2] | IC50 [3] | IC50 [4] | IC50 [5] | IC50 [6] | Ki [6] | IC50 (Cannabinoid receptor 1) | IC50 [7] | IC50 [8] | Ki [8] | IC50 [9] | IC50 (Cytochrome P450 2A6) | Ki (Cytochrome P450 2A6) | IC50 (Cytochrome P450 2E1) | Ki (Cytochrome P450 2E1)

COC(=O)c1ccc(O)cc1 [METHYLPARABEN]
Not Active: IC50 [1] | Ki [1] | IC50 [2] | IC50 [3] | IC50 [4] | IC50 [5] | IC50 [6] | Ki [6] | IC50 (Cannabinoid receptor 1) | IC50 [7] | IC50 [8] | Ki [8] | IC50 [9] | IC50 (Cytochrome P450 2A6) | Ki (Cytochrome P450 2A6) | IC50 (Cytochrome P450 2E1) | Ki (Cytochrome P450 2E1)

— ChEMBL document CHEMBL1909046, “DrugMatrix in vitro pharmacology data”
